One data set relates to HeLa cells. Description: MTT cell viability assay, chemotherapeutic agent plus composition. Format: cell-based. The note with it: for viability reduction: chemotherapeutic agent plus hydralazine 10 μM and magnesium valproate 1 mM, viability on day 4. Here is the method:
With this objective, three drugs were selected that are representative of his class: alkylating agents as cisplatin, antibiotic as doxorrubicin, antimetabolite as gemcitabine. The cells were plated in 96-well plates (Falcon Becton Dickinson, Franklin Lakes, N.J.) at a density of 1.5-2.5×10^3 cells/well in 0.1 ml of complete media. The following day the cells were treated with the chemotherapeutic agent at the concentration indicated in FIGS. 2A, 2B y 2C plus hydralazine at 10 μM and valproic acid or magnesium valproate at 1 mM. On the next day, the media containing the drugs was removed and fresh hydralazine and magnesium valproate were added at same concentration for another additional 48 hours. On the following day (day 4) cell viability was measured using an MTT assay. Briefly, 50 μl of MTT reagent in phosphate buffered solution were added to each well. […] Thereafter it is read spectrophotometrically on a ELISA reader. All the assays were carried out in triplicate. The cytotoxic effect of each treatment was expressed in the percentage of cell viability relative to the untreated control (% control) which is defined as [(A570nm treated cells)/A570nm untreated cells)]×100.

For data set [1], the system named is sarcoma HT1080 cellular line tumors. Description: HT1080 sarcoma model in immunodeficient mice. Format: in vivo, athymic mice. Here is the method: Once the capacity of hydralazine and valproic acid or a salt thereof such as magnesium valproate to alter the expression génica in the patients' tumors was assessed, we investigate if the composition of these transcriptome modifying agents increased the antitumoral effect of the chemotherapy in a model of sarcoma in immunodeficient mice. With this goal, groups of 6 female athymic mice were studied, which were injected with 6 million cells of the sarcoma HT1080 cellular line. Once the tumors were formed, the animals were treated systemically with hydralazine and valproic acid or a salt thereof such as magnesium valproate with doses equivalent to those used in the patients. The groups of treatment were as follows: 1) control treated with saline solution, 2) treated weekly with adriamycin, 3) treated with the composition of hydralazine and valproato for 7 days followed by the same weekly treatment with adriamycin. […] This phenomenon occurs commonly in the treatment of the cancer in the patients, where often an entire or almost entire antitumoral response is observed to relapse later. The composition of the present invention therefore might induce extended or complete remissions of the tumors.

For another data set, the system named is p21. Description: Clinical study of magnesium valproate: gene expression in post-treatment biopsies. Format: in vivo, human. The note with it: FIG. 8. The procedure:
(§1) Twelve patients with this cancer of recent diagnosis and without previous treatment received the following doses of magnesium valproate in groups of 4 patients. Group 1, 20 mg/Kg, Group 2, 30 mg/kg, Group 3, 40 mg/Kg. A biopsy of the tumor and a blood sample were taken before the treatment and on the following day (day 6) since valproic acid or a salt thereof such as magnesium valproate was administered for 5 days in divided doses every 8 hours. The hyperacetylation of Histone H3 was analyzed in the samples and histone H4 in the tumor by Western blot, as well as the activity of histone deacetylases in nuclear extracts of the tumor using a calorimetric essay, as well as the levels of valproic acid in serum. The level of expression of the genes p21 and CAR was also analyzed in the pos-treatment biopsies. The toxicity of the treatment was recorded at the end of the cycle.

Data set [2] has as its system Histone H3 and histone H4. Description: Clinical study of magnesium valproate: histone hyperacetylation in tumor by Western blot. Format: in vivo, human. The note with it: of 12 patients, after treatment. The procedure:
as §1
For orientation: A western blot detects proteins with antibodies after separation by electrophoresis.

The nature of data set [3]: Clinical study of magnesium valproate: toxicity. Type of data set: in vivo, human. The note with it: 20, 30, 40 mg/Kg for 5 days. The procedure: as §1
For another data set, the system named is histone deacetylases. Description: Clinical study of magnesium valproate: histone deacetylase activity in nuclear extracts of the tumor. Format: in vivo, human. Here is the method:
as §1

The subject of data set [4] is expression of suppressive genes (APC, MGMT, ER, GSTP1, DAPK, RARβ, FHIT, p16). The procedure: (§2) Whit this goal, hydralazine was administered to groups of 4 patients each group at doses of: 1) 50 mg/day, 2) 75 mg/day, 3) 100 mg/day and 4) 150 mg/day for 10 days. Biopsies and peripheral blood samples were taken before commencing treatment and at day 11. The state of pre- and post-treatment methylation was analyzed for the promoters of the following genes: APC, MGMT; ER, GSTP1, DAPK, RARβ, FHIT and p16 as well as the state of expression of their messengers by RT-PCR. Also the state of methylation of the gene subject to parental unactivation H19, and a genomic clone which normally is found methylated was evaluated, as well as the global content of methylated citokines in the genome. The toxicity to hydralazine was evaluated using the escale from the U.S. National Cancer Institute (CTC NCI). […] FIG. 3A.

The subject of data set [5] is promoters of APC, MGMT, ER, GSTP1, DAPK, RARβ, FHIT and p16. The note with it: post-treatment biopsies. Here is the method: as §2
For data set [6] the following is noted: 50-150 mg/day for 10 days, cancer patients. The procedure: as §2

Structures are written as SMILES. Where two headings read alike, the source gives them in different places.

As for `COc1cccc2c1C(=O)c1c(O)c3c(c(O)c1C2=O)C[C@@](O)(C(=O)CO)C[C@@H]3O[C@H]1C[C@H](N)[C@H](O)[C@H](C)O1` [adriamycin], the viability reduction in the data set on HeLa cells stood at 27%. Moreover, the “tumor re-growth after 3 weeks” value in data set [1] (weekly adriamycin alone, or composition for 7 days followed by weekly adriamycin, FIG. 9) is recorded as “the tumors grow again”. Also, the antitumoral effect result in [1] (weekly adriamycin, 3 weeks after treatment) is recorded as “almost complete antitumoral effect”.
For `N.N.[Cl][Pt][Cl]` [cisplatin], in the data set on HeLa cells, the viability reduction is on record as 37%. In addition, the IC50 with HeLa cells (read-out: inhibitory concentration 50 (IC50)) amounted to 12 µM.
As for `CCCC(CCC)C(=O)O` [magnesium valproate, 2-propylpentanoic acid], the “expression of p21” value in the data set on p21 is “increases its expression”. For the same molecule, in data set [2], the “patients with hyperacetylation in both histones” value is on record as “six”, the “patients with hyperacetylation of H3” value is given as “nine” and the “patients with hyperacetylation of H4” value is on record as “seven”. In addition, the tolerability result in data set [3] was “well tolerated”. Also, the “patients with Grade 2 drowsiness” value in data set [3] (of 12 patients) is given as “nine”. The “patients with no changes in activity of histone deacetylases” value in the data set with histone deacetylases is “two”. Moreover, the “patients in whom activity of histone deacetylases diminished” value in the data set on histone deacetylases (two-tailed t test p<0.0264) turned out to be 8 patients.
For the molecule `Nc1ccn([C@@H]2O[C@H](CO)[C@@H](O)C2(F)F)c(=O)n1` [gemcitabine], the viability reduction with HeLa cells was found to be 37%.
Regarding `NNc1nncc2ccccc12` [hydralazine, 1-hydrazinophthalazine], in [4] (dose between 50 and 150 mg), the “effect on genic expression in patients with cancer” value is “effective to alter the genic expression”. Further, in data set [4] (of the 12 informative cases), the “cases demethylated post-treatment that re-expressed the gene” value turned out to be 9 cases. In addition, the percentage of demethylation in data set [5] (hydralazine 50 mg/day for 10 days) is 40%; in [5] (hydralazine 75 mg/day for 10 days), 52%; in [5] (hydralazine 100 mg/day for 10 days), 43%; in [5] (hydralazine 150 mg/day for 10 days) it was 32%. Moreover, in data set [5] (2 out of 3), the “frequency of demethylation, p16” value stood at 67%. For the same molecule, the “frequency of demethylation, MGMT” value in [5] (2 out of 13 samples) is reported as 15%. In addition, in data set [6], the tolerability result is on record as “well tolerated”. Moreover, the undesirable effects registered result in [6] was “nausea, sickness, fatigue, headache and palpitations”.

The values are drawn from patent publication US9186339B2, “Use of transcriptome modifying agents and chemotherapy or radiotherapy against cancer” (UNIVERSIDAD NACIONAL AUTONOMA DE MEXICO, priority 2005, dated 2015).
